As usually defined, the IC50 is the point on the concentration scale where inhibition reaches its midpoint.

The text below walks through data of patent US20250034150A1, “BTK INHIBITORS” (BIOGEN MA INC., priority 2021, published 2025).

In the first assay the target is T1, BTK (Homo sapiens, UniProt Q06187).
T1 construct: purchased Upstate 14-552
T1 sequence (Q06187 whole entry): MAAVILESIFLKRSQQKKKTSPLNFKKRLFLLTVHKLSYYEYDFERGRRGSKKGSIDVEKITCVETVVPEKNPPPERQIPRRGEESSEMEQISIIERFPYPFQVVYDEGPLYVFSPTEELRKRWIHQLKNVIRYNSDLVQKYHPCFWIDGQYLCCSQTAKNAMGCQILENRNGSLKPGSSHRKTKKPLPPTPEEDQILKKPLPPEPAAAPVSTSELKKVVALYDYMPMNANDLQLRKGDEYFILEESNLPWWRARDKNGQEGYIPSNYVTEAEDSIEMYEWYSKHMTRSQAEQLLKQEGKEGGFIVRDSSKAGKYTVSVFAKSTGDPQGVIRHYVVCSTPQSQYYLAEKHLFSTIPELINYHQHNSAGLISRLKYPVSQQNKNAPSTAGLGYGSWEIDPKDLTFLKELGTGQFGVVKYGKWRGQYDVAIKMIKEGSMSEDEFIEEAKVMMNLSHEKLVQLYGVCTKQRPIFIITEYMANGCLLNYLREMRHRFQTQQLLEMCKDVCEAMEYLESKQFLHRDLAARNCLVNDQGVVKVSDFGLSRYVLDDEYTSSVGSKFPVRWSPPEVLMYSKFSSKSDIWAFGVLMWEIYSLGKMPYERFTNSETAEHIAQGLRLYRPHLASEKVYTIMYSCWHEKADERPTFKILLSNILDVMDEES
As to the kind of experiment: In Vitro BTK Kinase Assay: Btk-PolyGAT-LS Assay. The class given is biochemical. To be noted: active BTK enzyme 0.25 nM, polyGAT 100 nM, 30 minutes, TRF readout; read-out: In Vitro BTK Kinase Assay IC50 Score. How it is done:
The purpose of the BTK in vitro assay is to determine compound potency against BTK through the measurement of IC50. Compound inhibition is measured after monitoring the amount of phosphorylation of a fluorescein-labeled polyGAT peptide (Invitrogen PV3611) in the presence of active BTK enzyme (Upstate 14-552), ATP, and inhibitor. The BTK kinase reaction was done in a black 96 well plate (costar 3694). For a typical assay, a 24 μL aliquot of a ATP/peptide master mix (final concentration; ATP […], polyGAT 100 nM) in kinase buffer (10 mM Tris-HCl pH 7.5, 10 mM MgCl2, 200 μM […], 5 mM DTT, 0.01% Triton X-100, and 0.2 mg/ml casein) is added to each well. Next, […] of a 4-fold, 40× compound titration in 100% DMSO solvent is added, followed by adding 15 μL of BTK enzyme mix in 1× kinase buffer (with a final concentration of 0.25 nM). The assay is incubated for 30 minutes before being stopped with 28 μL of a 50 mM EDTA solution. Aliquots (5 uL) of the kinase reaction are transferred to a low volume white 384 well plate (Coming 3674), and 5 μL of a 2× detection buffer (Invitrogen PV3574, with 4 nM Tb—PY20 antibody, Invitrogen PV3552) is added. The plate is covered and incubated for 45 minutes at room temperature. Time resolved fluorescence (TRF) on Molecular Devices M5 (332 nm excitation; 488 nm emission; 518 nm fluorescein emission) is measured. IC50 values are calculated using a four parameter fit with 100% enzyme activity determined from the DMSO control and 0% activity from the EDTA control.
Regarding `Cn1cc(-c2cn3nccc3c(-c3cc(F)c(CNC(=O)c4nnn(C(C)(C)C)n4)cc3F)n2)cn1` [Example 99, 2-(tert-butyl)-N-(2,5-difluoro-4-(6-(1-methyl-1H-pyrazol-4-yl)pyrazolo[1,5-a]pyrazin-4-yl)benzyl)-2H-tetrazole-5-carboxamide], the IC50 was less than 1 nM.

With `Cn1cc(-c2cn3nccc3c(-c3ccc(CNC(=O)c4nc(C(C)(C)C)co4)cc3F)n2)cn1` [Example 110, 4-(tert-butyl)-N-(3-fluoro-4-(6-(1-methyl-1H-pyrazol-4-yl)pyrazolo[1,5-a]pyrazin-4-yl)benzyl)oxazole-2-carboxamide], the 50% inhibitory concentration (IC50) was in the range of 1 to 10 nM.

On to `Cn1cc(-c2cn3nccc3c(-c3ccc(CNC(=O)c4cnn(C(C)(C)C)c4)c(C(F)F)c3)n2)cn1` [Example 107, 1-(tert-butyl)-N-(2-(difluoromethyl)-4-(6-(1-methyl-1H-pyrazol-4-yl)pyrazolo[1,5-a]pyrazin-4-yl)benzyl)-1H-pyrazole-4-carboxamide], for which the half-maximal inhibitory concentration (IC50) was less than 1 nM.

Consider `Cc1cc(-c2nc(-c3cnn(C)c3)cn3nccc23)ccc1CN1CCN(C2COC2)C(C)C1=O` (centres unmarked) [Example 37, 3-methyl-1-(2-methyl-4-(6-(1-methyl-1H-pyrazol-4-yl)pyrazolo[1,5-a]pyrazin-4-yl)benzyl)-4-(oxetan-3-yl)piperazin-2-one], for which the IC50 was in the range of 10 to 1000 nM.

Consider `CC(C)(C)n1ccc(C(=O)NCc2ccc(-c3nc(N4CCOCC4)cn4nccc34)cc2)n1` [Example 28, 1-(tert-butyl)-N-(4-(6-morpholinopyrazolo[1,5-a]pyrazin-4-yl)benzyl)-1H-pyrazole-3-carboxamide], for which the concentration for half-maximal inhibition (IC50) lay in the range of 1000 to 10000 nM.

`CN(C)c1cn2nccc2c(-c2ccc(CNC(=O)c3noc(C(C)(C)C)n3)cc2)n1` [Example 135, 5-(tert-butyl)-N-(4-(6-(dimethylamino)pyrazolo[1,5-a]pyrazin-4-yl)benzyl)-1,2,4-oxadiazole-3-carboxamide]: the IC50 was in the range of 10 to 1000 nM.

On to `CN1CCN(CC2CCN(c3nc(-c4cnn(C)c4)cn4nccc34)CC2)C(=O)C1` [Example 171, 4-methyl-1-((1-(6-(1-methyl-1H-pyrazol-4-yl)pyrazolo[1,5-a]pyrazin-4-yl)piperidin-4-yl)methyl)piperazin-2-one], for which the IC50 was 1000 to 10000 nM.

In the case of `Cc1cc(-c2nc(N3CCOCC3)cn3nccc23)ccc1CNC(=O)c1cnn(C(C)(C)C)n1` [Example 123, 2-(tert-butyl)-N-(2-methyl-4-(6-morpholinopyrazolo[1,5-a]pyrazin-4-yl)benzyl)-2H-1,2,3-triazole-4-carboxamide], the 50% inhibitory concentration (IC50) is 10 to 1000 nM.

Regarding `Cn1cc(-c2cn3nccc3c(N3CCC4(CC(NC(=O)c5noc(C(C)(C)C)n5)C4)C3)n2)cn1` (centres unmarked) [Example 52, 5-(tert-butyl)-N-(6-(6-(1-methyl-1H-pyrazol-4-yl)pyrazolo[1,5-a]pyrazin-4-yl)-6-azaspiro[3.4]octan-2-yl)-1,2,4-oxadiazole-3-carboxamide], the concentration for half-maximal inhibition (IC50) was in the range of 1000 to 10000 nM.

For `Cn1cc(-c2cn3nccc3c(N3CC[C@H](CNC(=O)c4noc(C(C)(C)C)n4)C(F)(F)C3)n2)cn1` (single isomer, unassigned) [Example 159], the IC50 was 10 to 1000 nM.

As to `Cc1cc(-c2nc(-c3cnn(C)c3)cn3nccc23)ccc1CN1CCN(CC2COC2)CC1=O` [Example 32, 1-(2-methyl-4-(6-(1-methyl-1H-pyrazol-4-yl)pyrazolo[1,5-a]pyrazin-4-yl)benzyl)-4-(oxetan-3-ylmethyl)piperazin-2-one], the IC50 was in the range of 10 to 1000 nM.

As to `C[C@@H]1CN(c2nc(-c3cnn(C)c3)cn3nccc23)CC[C@@H]1CNC(=O)c1cn(C(C)(C)C)nn1` (single isomer, unassigned) [Example 150], the IC50 was 10 to 1000 nM.

Regarding `C[C@@H]1CN(c2nc(-c3cnn(C)c3)cn3nccc23)CC[C@H]1CNC(=O)c1noc(C2(C)CC2)n1` (single isomer, unassigned) [Example 145], the IC50 was in the range of 10 to 1000 nM.

With `Cc1cc(-c2nc(N3CCOCC3)cn3nccc23)ccc1CNC(=O)c1noc(C2(C)CC2)n1` [Example 126, N-(2-methyl-4-(6-morpholinopyrazolo[1,5-a]pyrazin-4-yl)benzyl)-5-(1-methylcyclopropyl)-1,2,4-oxadiazole-3-carboxamide], the half-inhibitory concentration (IC50) was in the range of 1 to 10 nM.

On to `Cn1cc(-c2cc(-c3ccc(CNC(=O)c4cn(C(C)(C)C)nn4)cc3)n3cnnc3c2)cn1` [Example 75, 1-(tert-butyl)-N-(4-(7-(1-methyl-1H-pyrazol-4-yl)-[1,2,4]triazolo[4,3-a]pyridin-5-yl)benzyl)-1H-1,2,3-triazole-4-carboxamide], for which the IC50 lay within 10 to 1000 nM.

As to `Cn1cc(-c2cn3nccc3c(-c3cc(F)c(CNC(=O)c4ccn(C(C)(C)C)n4)cc3F)n2)cn1` [Example 96, 1-(tert-butyl)-N-(2,5-difluoro-4-(6-(1-methyl-1H-pyrazol-4-yl)pyrazolo[1,5-a]pyrazin-4-yl)benzyl)-1H-pyrazole-3-carboxamide], the half-maximal inhibitory concentration (IC50) was 10 to 1000 nM.

As for `CC(C)(C)c1nc(C(=O)NCc2ccc(-c3nc(N4CCOCC4)cn4nccc34)cc2F)co1` [Example 125, 2-(tert-butyl)-N-(2-fluoro-4-(6-morpholinopyrazolo[1,5-a]pyrazin-4-yl)benzyl)oxazole-4-carboxamide], the IC50 fell in the range of 10 to 1000 nM.

Regarding `Cc1cc(-c2nc(-c3cnn(C4COC4)c3)cn3nccc23)ccc1CNC(=O)c1noc(C(C)(C)C)n1` [Example 55, 5-(tert-butyl)-N-(2-methyl-4-(6-(1-(oxetan-3-yl)-1H-pyrazol-4-yl)pyrazolo[1,5-a]pyrazin-4-yl)benzyl)-1,2,4-oxadiazole-3-carboxamide], the 50% inhibitory concentration (IC50) is less than 1 nM.

Consider `Cn1cc(-c2cn3nccc3c(N3CCCC(CNC(=O)c4cn(C(C)(C)C)nn4)CC3)n2)cn1` (centres unmarked) [Example 167, 1-(tert-butyl)-N-((1-(6-(1-methyl-1H-pyrazol-4-yl)pyrazolo[1,5-a]pyrazin-4-yl)azepan-4-yl)methyl)-1H-1,2,3-triazole-4-carboxamide], for which the half-maximal inhibitory concentration (IC50) was 10 to 1000 nM.

Take `C[C@H]1CN(c2nc(-c3cnn(C)c3)cn3nccc23)CC[C@H]1CNC(=O)c1noc(C2(C)CC2)n1` (single isomer, unassigned) [Example 147]: the IC50 was in the range of 10 to 1000 nM.

As for `CC(C)(C)c1nnc(C(=O)NCc2ccc(-c3nc(N4CCOCC4)cn4nccc34)cc2)o1` [Example 29, 5-(tert-butyl)-N-(4-(6-morpholinopyrazolo[1,5-a]pyrazin-4-yl)benzyl)-1,3,4-oxadiazole-2-carboxamide], the concentration for half-maximal inhibition (IC50) was 1000 to 10000 nM.

As to `Cn1cc(-c2cn3nccc3c(-c3ccc(CNC(=O)c4ccn(C(C)(C)C)n4)cc3F)n2)cn1` [Example 111, 1-(tert-butyl)-N-(3-fluoro-4-(6-(1-methyl-1H-pyrazol-4-yl)pyrazolo[1,5-a]pyrazin-4-yl)benzyl)-1H-pyrazole-3-carboxamide], the half-maximal inhibitory concentration (IC50) is 10 to 1000 nM.

For the molecule `CC(C)CN1CCN(CC2CCN(c3nc(-c4cnn(C)c4)cn4nccc34)CC2)C(=O)C1` [Example 168, 4-isobutyl-1-((1-(6-(1-methyl-1H-pyrazol-4-yl)pyrazolo[1,5-a]pyrazin-4-yl)piperidin-4-yl)methyl)piperazin-2-one], the half-maximal inhibitory concentration (IC50) lay in the range of 10 to 1000 nM.

The test system of another assay is CD69 expression on CD19+ B cells in human whole blood. Nature of the assay: In Vitro whole blood CD69 Assay. Format: cell-based. The following applies: B-cell; human heparinized whole blood, anti-human IgD stimulation overnight, CD19+ B cells, flow cytometry; read-out: In Vitro HWB CD69 Assay IC50 Score. On the procedure: Human heparinized venous blood from health donors was aliquoted into 96-well plate and “spiked” with serial dilutions of formula I compounds in DMSO or with DMSO without drug. The final concentration of DMSO in all wells was 0.1%. The plate was incubated at 37° C. for 30 min. Drug-containing samples were stimulated with 0.1 μg/mL mouse anti-human IgD-dextran (1A62) or 20 μg/mL polyclonal rabbit F(ab′)2 anti-human IgD. Phosphate-buffered saline (PBS) was added to the negative control unstimulated sample and the plates were incubated overnight (18 to 22 hours) at 37° C. Cells were stained with fluorochrome-conjugated anti-CD19 and anti-CD69 antibodies. Lyse/fix solution was used to remove red blood cells by hypotonic lysis and to fix the remaining cells, which were then analyzed by flow cytometry. CD19+ B cells were gated and analyzed for CD69 expression.
A general note: Flow cytometry measures light scatter and fluorescence of single cells or particles in a stream.
`Cn1cc(-c2cn3nccc3c(-c3cc(F)c(CNC(=O)c4nnn(C(C)(C)C)n4)cc3F)n2)cn1` [Example 99, 2-(tert-butyl)-N-(2,5-difluoro-4-(6-(1-methyl-1H-pyrazol-4-yl)pyrazolo[1,5-a]pyrazin-4-yl)benzyl)-2H-tetrazole-5-carboxamide]: the half-maximal inhibitory concentration (IC50) is less than 1000 nM.

For `Cn1cc(-c2cn3nccc3c(-c3ccc(CNC(=O)c4nc(C(C)(C)C)co4)cc3F)n2)cn1` [Example 110, 4-(tert-butyl)-N-(3-fluoro-4-(6-(1-methyl-1H-pyrazol-4-yl)pyrazolo[1,5-a]pyrazin-4-yl)benzyl)oxazole-2-carboxamide], the IC50 was 1000 to 10000 nM.

Consider `Cn1cc(-c2cn3nccc3c(-c3ccc(CNC(=O)c4cnn(C(C)(C)C)c4)c(C(F)F)c3)n2)cn1` [Example 107, 1-(tert-butyl)-N-(2-(difluoromethyl)-4-(6-(1-methyl-1H-pyrazol-4-yl)pyrazolo[1,5-a]pyrazin-4-yl)benzyl)-1H-pyrazole-4-carboxamide], for which the IC50 is less than 1000 nM.
